Assay results as given in patent US20040087539A1, “Method of treating conditions related to platelet activity” (priority 2003, published 2004).
Entries after “also recorded” stand apart in the source; their conditions may differ.

What was measured:
platelets [1] = settings: agonists ADP, collagen, A23 187, U46619, platelet activating factor; Ref. 38; cited from earlier work
platelets [2] = assay: Platelet aggregation/activation in vitro with sildenafil by itself; assay type: cell-based, human
[3] = tested on: CHO cells expressing human platelet receptors; assay: Cell adhesion to immobilized vWF under flow; assay type: cell-based, Chinese Hamster; settings: for stable adhesion of vector-transfected 123 cells to vWF under flow / stable adhesion of PKG-expressing 123 cells (123PKG) to vWF under flow: FIG. 2C, sildenafil 5 μM; for stable adhesion of PKG-expressing 123 cells (123PKG) to vWF under flow: RGDS 4 mM, 8-bromo-cGMP not shown
Procedure: CHO cells expressing human platelet receptors were resuspended in modified Tyrode's buffer, pH 7.4, containing 1 mg/mi of bovine serum albumin (BSA) (see Ref. 46), and final cell count was 5×10^5/ml. […] Purified human vWF (10 μg/ml in 0.1 M NaHCO3, pH 8.3) was added to glass microcapillary tubes (inner diameter of 1.33 mm and a length of 7.2 cm), and incubated at 4° C. for 20 h. The vWF-coated microcapillary tubes then were incubated with 5% BSA. After washing, the cell suspension was aspirated through the tube by a syringe pump (Harvard Apparatus Inc.) at desired shear rates for 1.2 minutes and washed with modified Tyrode's buffer for additional 10 minutes at the same shear rates to remove transiently adherent cells. The experiments were continuously recorded on videotape using a video cassette recorder (model 9500, Sony). The number of stably adherent cell on immobilized vWF was counted on images obtained at 20 randomly selected positions in the vWF-coated tubes.
In FIGS. 2A and B, vWF-coated capillary tubes were perfused with equivalent numbers (5×10^5/ml) of CHO cells expressing recombinant GPLb-JX alone (1b9), integrin αIIbβ3 alone (2b3a), both GPIb-IX and integrin αIIbβ3 (123) or expressing GPJb-JX, integrin α^IIbβ3 and PKG Ia (123PKG) at a shear rates of 800 s^−1 (A) or 1500 s^−1 (B) for 1.2 minutes, and then perfused with the modified Tyrodes buffer for 10 minutes at the same shear rates to wash out transient adherent cells. The expenments were recorded in real time. Cells stably adherent to vWF-coated capillary tubes at 20 randomly selected locations were counted.
In FIG. 2C, vector-transfected 123 cells (123) or 123PKG cells also was perfused into vWF-coated glass capillary tubes as described in FIG. 2A in the absence or presence (+RGDS) of an integrin inhibitor RGDS peptide (4 mM) and in the absence (Control) or presence of cGMP-enhancing drug, sildenafil (5 μM). […] The experiments were repeated at least three times.

[4] = clinical reports, Refs. 39-42; cited from earlier work
platelets [5] = assay: Low-dose α-thrombin-induced aggregation of washed platelets; assay type: cell-based, human; settings: washed platelets; thrombin 0.02 units/ml; FIGS. 5B, 6B
Procedure: (§1) Fresh blood from healthy volunteers was anticoagulated with 1/7 volume of ACD (2.5% trisodium citrate, 2% dextrose and 1.5% citric acid). Platelets were washed with CGS buffer (sodium chloride 0.12 M, trisodium citrate 0.0129 M and d-glucose 0.03 M, pH 6.5), resuspended in modified Tyrode's solution and allowed to incubate at 22° C. for 1 hours as previously described. In experiments using platelet-rich plasma (PRP), 1/10 volume of 3.8% trisodium citrate was used as anticoagulant. Platelet aggregation was measured using a turbidometric platelet aggregometer (Chrono-Log) at 37° C. vWF-dependent platelet aggregation was induced by addition of ristocetin or botrocetin to PRP. To differentiate CPIb-IX-mediated platelet agglutination from the second wave of integrin-dependent platelet aggregation, final concentrations of ristocetin were adjusted in each experiment to achieve a two-wave curve of aggregation. Washed platelets were used in platelet aggregation induced by a-thrombin (Enzyme Research Laboratories). To examine the effects of PKG, 100 μM of membrane permeable cGMP analogs, 8-bromo-cGMP or 8-dibutyl-cGMP (Calbiochem), or 1 μM sildenafil citrate (Pfizer) and added simultaneously with subthreshold concentrations of agonists. PKG inhibitors KT5823 (2 pM) and Rp-8PCPT-cGMP (0.2 mM) were preincubated with platelets at 37° C. for 5 minutes before addition of agonists.
In FIG. 5A, washed platelets were preincubated with 40 pg/mi anti-GPIba monoclonal antibody SZ2, integrin inhibitor RGDS, or inhibitors of PKG, KT5823 (2 μM) or Rp-8pCPT-cGMP (0.2 mM) (Calbiochem), for 5 min. Platelets also were preincubated with DMSO (vehicle for KT5823), KT5720 or buffer (Control) as controls. α-Thrombin (0.05 units/mi) then was added to induce platelet aggregation. Nonspecific JgG and RGES peptides also were examined as additional controls, but had no effect (not shown). In FIG. 5B, a subthreshold dose of thrombin was added to platelets immediately followed by addition of PKG activator 8-bromo-cGMP or buffer (Control). Shown in the figure are the representative results of at least three experiments.
(§2) In FIG. 6A, increasing concentrations of sildenafil or control 0.15 M NaCl solution were added to platelet-rich plasma followed by a subthreshold concentration of ristocetin. Platelet aggregation was recorded using a platelet aggregometer. In FIG. 6B, sildenafil or control buffer was added to washed platelets followed by addition of subthreshold doses of thrombin to induce platelet aggregation. It was noted that platelet aggregation occurs in the presence of sildenafil. The figure includes the representative results of at least three experiments.
(§3) In FIG. 7A, PRP was preincubated with 0.1 mM 8-bromo-cGMP for increasing lengths of time at 37° C. as indicated. The vWF modulator, ristocetin (1.25 mg/ml), then was added to induce platelet aggregation in a turbidometric platelet aggregometer. In FIG. 7B, PRP was preincubated with a high concentration of 8-bromo-cGMP (1 mM) for 5 minutes. Ristocetin then was added to induce platelet aggregation. In FIGS. 7C and 7D, washed platelets in modified Tyrode's solution were preincubated with 1 mM 8-bromo-cGMP (C), or various concentrations of 8-pCPT-cGMP (D) at 37° C. for 5 minutes. Thrombin (0.05 u/ml) then was added to induce platelet aggregation.

platelets [6] = assay: Ristocetin-induced vWF-dependent platelet aggregation in platelet-rich plasma; assay type: cell-based, human; settings: PRP; agent added with subthreshold ristocetin (1 mg/mm [sic]) (or botrocetin); FIGS. 3B, 6A
Procedure: as §1
In FIG. 3A, platelet rich-plasma (PRP) was preincubated at 37° C. for 5 mm with PKG inhibitors KT5823 (2 pM) or Rp-8pCPT-cGMP (0.2 μM). PRP was also incubated with DMSO (vehicle for KT5823), a PKA inhibitor, KT5720 (2 pM), or buffer (Control). The vWF modulator, ristocetin, was then added to induce vWF-GPIb-IX interaction. […] In FIG. 3B, a subthreshold concentration of ristocetin was added to PRP immediately followed by addition of 8-bromo-cGMP or buffer (Control). PRP also was preincubated with integrin inhibitor RGDS before adding ristocetin and 8-bromo-cGMP. In FIG. 3C, platelets were preincubated with or without PKG inhibitor KT5823, then allowed to spread on vWF-coated glass chamber slides. Platelets were stained with an anti-GPIb antibody, and fluorescein-labeled secondary antibody. The slides were imaged under a confocal microscope (magnification =630×).
as §2, §3

[7] = identical flow conditions, not shown

Structure (SMILES): CCCc1nn(C)c2c(=O)[nH]c(-c3cc(S(=O)(=O)N4CCN(C)CC4)ccc3OCC)nc12 [sildenafil]
- platelet activation in vitro, sildenafil alone (platelets [1]): did not inhibit; also recorded: does not inhibit
- platelet aggregation in vitro (platelets [2]; sildenafil, not shown): did not inhibit
- platelet activation by sildenafil by itself (platelets [2]; without platelet agonist): not sufficient to cause platelet activation
- stable adhesion of vector-transfected 123 cells to vWF under flow [3]: enhancing effects
- stable adhesion of PKG-expressing 123 cells (123PKG) to vWF under flow [3]: enhanced
- stable adhesion of PKG-expressing 123 cells (123PKG) to vWF under flow ([3]; listed as Sildenafil): significantly increased
- stable adhesion of vector-transfected 123 cells to vWF under flow ([3]; listed as Sildenafil): significantly increased
- stable adhesion of 1b9 cells (GPIb-IX alone) under flow [3, 7]: no effect
- stable adhesion of 2b3a cells (integrin αIIbβ3 alone) under flow [3, 7]: no effect
- thrombotic events (myocardial infarction and cerebral thrombosis) in some patients [4]: associated with severe thrombotic events
- platelet aggregation together with a subthreshold concentration of thrombin (platelets [5]): induces platelet aggregation
- platelet aggregation together with a subthreshold concentration of ristocetin (platelets [6]): induces platelet aggregation
